This is an account of results in patent US20250170248A1, “SMARCA DEGRADERS AND USES THEREOF” (Kymera Therapeutics, Inc., priority 2021, published 2025).

The target of one assay is T1, SMARCA4 (Homo sapiens, UniProt P51532).
T1 construct: SMARCA2/SMARCA4 protein degradation selectivity in MV4-11 cells; endogenous in cells; host or cells: MV4-11
Briefly: SMARCA4 Western blot degradation in MV4-11 cells. The class given is cell-based. Conditions: for Dmax: MV4-11, MV4-11 cells, read-out: SMARCA4 MSD MV411 degradation 24 h: average Dmax %; for Dmax / DC50: 24 h; for DC50 / SMARCA4 MSD MV411 degradation 24 h: average Dmax %: MV4-11 cells; for DC50: read-out: SMARCA4 MSD MV411 degradation 24 h: Mean external-Abs DC50. As for the experimental part:
Example 11. SMARCA2 and SMARCA4 Western Blot MV4-11 Degradation
Cells were seeded into 6-well plates (MV4-11:4×10^6 cells/well/1 ml) and 1 ml of 2× compound solution was added into the well to make the final concentration and the plates were mixed well and incubated for 24 hours (No cytotoxicity was observed). The cell were collected with media and spun at 3000 rpm for 5 minutes. The supernatant was aspirated and the well and the cells were washed with cold PBS once and combined for centrifugation again; the supernatant aspirated again. 200 uL pre-chilled RIPA lysis buffer (Boston BioProducts BP-115D) with protease/phosphatase inhibitor (Roche 05892791001/Roche 04906837001) was directly added into the tube to lyze the cells for 20 minutes on ice. The cell lysate were collected into EP tubes and spun at 13000 rpm for 20 minutes and 72 uL supernatant was transferred to a fresh EP tube containing 18 μL of 5× loading buffer (Beyotime Bio P0015) to make the loading samples. The samples were heated to 100° C. for 10 minutes and cooled to RT and microcentrifuged. 20 μL of samples were loaded onto SDS-PAGE gel (Novex, WG1402BOX) and the gel was run at 80 V for 20 minutes and 120 V for 1.5 hours. The samples were electrotransfer to a NC membrane using wet-transfer method with 250 mA for 2.5 hours. The membrane was blocked with LICOR blocking buffer (LI COR,927-50000) for 1 hour. The membrane was washed three times with TBST(CST #9997S), 5 minutes each. Incubation was performed with primary antibody prepared in blocking buffer with 0.1% Tween-20 (Solarbio, P8220) at 4° C. overnight (Anti-SMARCA2/BRM antibody (ab15597) 1:500; Anti-BRG1 antibody [EPR3912](ab108318) 1:1000; Rabbit anti-Bafl80 antibody [EPR15860](Abcam,ab196022) 1:1000; mouse anti-beta-Actin (8H10D10) (CST #3700) 1:10000). The membrane was washed three times with TBST, 5 minutes each. Incubation with secondary antibody was performed for 1 hour at RT (anti-rabbit IgG (Licor,926-32211) 1:5000; anti-mouse IgG (LI-COR, 926-68070) 1:5000). The membrane was washed three times with 5 minutes each and lastly the LiCOR was read.
The letter codes for SMARCA2/4 degradation potency (DC50) include: A (<1 nM), B (1-10 nM), C (>10-100 nM), and D (>100 nM). The letter codes for the percentage of SMARCA2/4 degradation after 24 hours (Dmax %) include: A (>90% degradation), B (>70-90% degradation), C (50-70% degradation), and D (<50% degradation). The letter codes of SMARCA2/4 selectivity include: A (>500 fold), B (>100-500 fold), C (10-100 fold), and D (<10 fold). Table 8. SMARCA2/4 Selectivity Results

A further assay has as its target SMARCA2 (Homo sapiens, UniProt P51531). Briefly: SMARCA2 Western blot degradation in MV4-11 cells. It is filed as cell-based. To be noted: for Dmax: MV4-11, MV4-11 cells, read-out: SMARCA2 MSD MV411 degradation 24 h: average Dmax %; for Dmax / DC50 / SMARCA2 MSD MV411 degradation 24 h: average Dmax %: 24 h; for DC50 / Selectivity in MV411 / SMARCA2 MSD MV411 degradation 24 h: average Dmax %: MV4-11 cells; for DC50: read-out: SMARCA2 MSD MV411 degradation 24 h: Mean external-Abs DC50; for Selectivity in MV411: SMARCA2/4 selectivity. Further details: SMARCA2/SMARCA4 protein degradation selectivity in MV4-11 cells; endogenous in cells; host or cells: MV4-11.

SMARCA2, sequence (P51531 whole entry): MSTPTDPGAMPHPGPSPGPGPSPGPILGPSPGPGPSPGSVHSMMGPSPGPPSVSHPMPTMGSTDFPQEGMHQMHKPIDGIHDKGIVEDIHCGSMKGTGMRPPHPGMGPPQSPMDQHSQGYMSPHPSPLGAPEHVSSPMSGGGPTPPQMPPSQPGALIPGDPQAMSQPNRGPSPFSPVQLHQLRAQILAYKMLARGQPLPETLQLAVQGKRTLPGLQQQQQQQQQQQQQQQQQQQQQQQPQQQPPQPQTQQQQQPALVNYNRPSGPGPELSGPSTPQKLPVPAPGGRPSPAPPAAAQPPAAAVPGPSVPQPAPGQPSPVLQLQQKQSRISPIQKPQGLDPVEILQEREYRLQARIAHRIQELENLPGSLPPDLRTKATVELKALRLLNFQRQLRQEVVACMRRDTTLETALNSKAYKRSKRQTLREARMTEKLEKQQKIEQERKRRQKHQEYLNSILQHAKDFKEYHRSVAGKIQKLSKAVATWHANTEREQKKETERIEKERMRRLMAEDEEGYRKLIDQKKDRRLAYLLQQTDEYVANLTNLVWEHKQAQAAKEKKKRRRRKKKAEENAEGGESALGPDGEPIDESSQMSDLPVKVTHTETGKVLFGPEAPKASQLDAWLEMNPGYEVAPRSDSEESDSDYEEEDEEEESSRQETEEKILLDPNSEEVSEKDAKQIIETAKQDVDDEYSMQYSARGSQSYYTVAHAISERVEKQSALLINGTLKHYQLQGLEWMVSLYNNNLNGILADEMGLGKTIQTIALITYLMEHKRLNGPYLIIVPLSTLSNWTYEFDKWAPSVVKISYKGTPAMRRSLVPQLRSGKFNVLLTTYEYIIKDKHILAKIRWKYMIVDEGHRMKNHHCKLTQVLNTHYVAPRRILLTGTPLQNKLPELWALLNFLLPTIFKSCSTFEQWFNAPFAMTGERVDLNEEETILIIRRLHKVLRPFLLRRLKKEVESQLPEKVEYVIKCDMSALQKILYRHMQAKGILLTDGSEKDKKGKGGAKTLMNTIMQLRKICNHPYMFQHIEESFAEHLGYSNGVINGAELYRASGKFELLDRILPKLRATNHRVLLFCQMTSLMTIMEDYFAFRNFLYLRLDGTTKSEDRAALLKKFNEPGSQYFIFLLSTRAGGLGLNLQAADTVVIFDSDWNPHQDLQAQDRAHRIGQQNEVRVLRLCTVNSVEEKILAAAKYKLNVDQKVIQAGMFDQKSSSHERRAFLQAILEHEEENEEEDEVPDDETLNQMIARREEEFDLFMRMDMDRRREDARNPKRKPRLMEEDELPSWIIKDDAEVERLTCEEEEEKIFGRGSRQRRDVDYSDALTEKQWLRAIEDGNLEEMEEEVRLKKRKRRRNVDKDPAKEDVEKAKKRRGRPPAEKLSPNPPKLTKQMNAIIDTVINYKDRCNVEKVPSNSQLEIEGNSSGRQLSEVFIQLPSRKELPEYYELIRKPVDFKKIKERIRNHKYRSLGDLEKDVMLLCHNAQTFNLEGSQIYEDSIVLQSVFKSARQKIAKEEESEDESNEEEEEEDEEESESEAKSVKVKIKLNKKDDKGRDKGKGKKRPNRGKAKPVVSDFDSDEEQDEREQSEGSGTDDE
T1 sequence (P51532 whole entry): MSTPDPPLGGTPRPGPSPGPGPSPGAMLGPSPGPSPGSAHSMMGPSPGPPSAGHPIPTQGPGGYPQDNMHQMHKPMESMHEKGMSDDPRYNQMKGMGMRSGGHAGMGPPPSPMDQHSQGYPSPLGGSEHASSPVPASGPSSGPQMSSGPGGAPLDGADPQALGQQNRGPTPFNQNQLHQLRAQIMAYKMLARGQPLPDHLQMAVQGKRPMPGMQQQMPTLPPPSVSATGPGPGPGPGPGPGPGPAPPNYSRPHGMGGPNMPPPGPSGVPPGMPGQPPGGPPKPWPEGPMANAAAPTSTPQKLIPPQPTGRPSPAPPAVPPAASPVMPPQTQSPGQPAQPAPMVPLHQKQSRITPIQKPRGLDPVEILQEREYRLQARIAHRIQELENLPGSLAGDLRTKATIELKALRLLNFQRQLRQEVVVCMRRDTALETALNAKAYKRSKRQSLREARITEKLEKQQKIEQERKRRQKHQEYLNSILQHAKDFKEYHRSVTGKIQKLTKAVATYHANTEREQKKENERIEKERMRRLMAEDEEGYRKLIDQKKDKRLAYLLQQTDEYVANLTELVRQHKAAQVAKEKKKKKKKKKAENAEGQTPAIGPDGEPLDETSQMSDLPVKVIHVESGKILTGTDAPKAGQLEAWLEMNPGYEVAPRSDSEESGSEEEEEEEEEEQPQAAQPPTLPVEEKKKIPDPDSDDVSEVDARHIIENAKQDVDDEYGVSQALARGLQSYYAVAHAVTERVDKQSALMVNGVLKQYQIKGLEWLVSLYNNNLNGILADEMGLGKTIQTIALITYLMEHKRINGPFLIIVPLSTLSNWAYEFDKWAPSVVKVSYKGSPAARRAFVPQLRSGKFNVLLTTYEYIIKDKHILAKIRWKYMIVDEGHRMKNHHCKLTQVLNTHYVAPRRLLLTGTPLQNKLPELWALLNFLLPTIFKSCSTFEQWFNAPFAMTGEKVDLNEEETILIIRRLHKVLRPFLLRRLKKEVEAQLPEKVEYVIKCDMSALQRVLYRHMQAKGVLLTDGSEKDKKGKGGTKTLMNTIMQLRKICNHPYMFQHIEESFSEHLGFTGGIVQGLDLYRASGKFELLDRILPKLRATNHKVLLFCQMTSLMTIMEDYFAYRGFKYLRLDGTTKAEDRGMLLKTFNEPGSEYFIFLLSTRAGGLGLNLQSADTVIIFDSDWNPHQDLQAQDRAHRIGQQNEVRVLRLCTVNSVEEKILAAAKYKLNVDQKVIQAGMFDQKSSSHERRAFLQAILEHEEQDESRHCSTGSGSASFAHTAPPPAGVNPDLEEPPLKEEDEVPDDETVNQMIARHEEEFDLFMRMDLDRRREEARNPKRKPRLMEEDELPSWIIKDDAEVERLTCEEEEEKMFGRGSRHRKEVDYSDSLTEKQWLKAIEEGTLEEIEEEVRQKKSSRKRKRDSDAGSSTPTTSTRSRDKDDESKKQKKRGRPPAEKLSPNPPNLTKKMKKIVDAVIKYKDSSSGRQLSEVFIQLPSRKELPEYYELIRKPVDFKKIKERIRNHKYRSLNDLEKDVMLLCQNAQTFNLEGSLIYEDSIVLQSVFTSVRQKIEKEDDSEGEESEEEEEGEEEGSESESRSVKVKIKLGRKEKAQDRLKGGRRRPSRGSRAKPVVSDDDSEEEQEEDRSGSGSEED

A word on the Dmax: it is the greatest extent of degradation seen. By DC50 is commonly meant the midpoint of the concentration-degradation curve. In the case of `C#Cc1ccc([C@H](C)NC(=O)[C@@H]2C[C@@H](O)CN2C(=O)[C@@H](NC(=O)[C@H]2CCC3(CC2)C[C@H](N2CCC(c4cnc(N5CCN6c7cc(-c8ccccc8O)nnc7NC[C@H]6C5)nc4)CC2)C3)C(C)(C)C)cc1` (single isomer, unassigned) [I-56], at SMARCA4, the maximal degradation (Dmax) lay in the range of 50 to 70% and the DC50 was more than 100 nM. In addition, at SMARCA2, the Dmax lay within 70 to 90%, the DC50 was 1 to 10 nM and the “Selectivity in MV411” value was “A (A (>500 fold))”.

`Cc1ncsc1-c1ccc(CNC(=O)[C@@H]2C[C@@H](O)CN2C(=O)[C@@H](NC(=O)N2CC3(CC(N4CCN(c5ccnc(N6CCN7c8cc(-c9ccccc9O)nnc8NC[C@H]7C6)n5)CC4)C3)C2)C(C)(C)C)cc1` [I-72]: at SMARCA4, the Dmax lay within 70 to 90% and the DC50 fell in the range of 1 to 10 nM. Further, on SMARCA2, the Dmax lay in the range of 70 to 90%, the DC50 is less than 1 nM and the “Selectivity in MV411” value is on record as “D (D (<10 fold))”.

With `Cc1ncsc1-c1ccc(CNC(=O)[C@@H]2C[C@@H](O)CN2C(=O)[C@@H](NC(=O)[C@H]2CC3(CC[C@H](N4CCC(c5cnc(N6CCN7c8cc(-c9ccccc9O)nnc8NC[C@H]7C6)nc5)CC4)CC3)C2)C(C)(C)C)cc1` (single isomer, unassigned) [I-66], at SMARCA4, the “SMARCA4 MSD MV411 degradation 24 h: average Dmax %” value is “D (D (<50% degradation))” and the DC50 was more than 100 nM. Besides, at SMARCA2, the “SMARCA2 MSD MV411 degradation 24 h: average Dmax %” value is recorded as “B (B (>70-90% degradation))”, the DC50 was in the range of 10 to 100 nM and the “Selectivity in MV411” value was “B (B (>100-500 fold))”.

Regarding `Cc1ncsc1-c1ccc(CNC(=O)[C@@H]2C[C@@H](O)CN2C(=O)[C@@H](NC(=O)[C@H]2CCC3(CC2)C[C@H](N2CCC(c4cnc(N5CCN6c7cc(-c8ccccc8O)nnc7NC[C@H]6C5)nc4)CC2)C3)C(C)(C)C)cc1` (stereo partly drawn) [I-71], the DC50 on SMARCA4 is more than 100 nM. Moreover, on SMARCA2, the DC50 was in the range of 1 to 10 nM and the “Selectivity in MV411” value is on record as “A (A (>500 fold))”.

As for `Cc1ncsc1-c1ccc(CNC(=O)[C@@H]2C[C@@H](O)CN2C(=O)[C@@H](NC(=O)N2CCC3(CCC(N4CCC(c5cnc(N6CCN7c8cc(-c9ccccc9O)nnc8NC[C@H]7C6)nc5)CC4)CC3)CC2)C(C)(C)C)cc1` [I-68], at SMARCA4, the Dmax is less than 50% and the half-maximal degradation concentration (DC50) was more than 100 nM. Also, at SMARCA2, the Dmax was 50 to 70%, the DC50 fell in the range of 10 to 100 nM and the “Selectivity in MV411” value was “C (C (10-100 fold))”.

Take `Cc1ncsc1-c1ccc(CNC(=O)[C@@H]2C[C@@H](O)CN2C(=O)[C@H](c2cc(N3CC4(CC(N5CCC(c6cnc(N7CCN8c9cc(-c%10ccccc%10O)nnc9NC[C@H]8C7)nc6)CC5)C4)C3)no2)C(C)C)cc1` (single isomer, unassigned) [I-54]: on SMARCA4, the Dmax lay within 70 to 90% and the DC50 fell in the range of 10 to 100 nM. For the same compound, on SMARCA2, the greatest degradation seen (Dmax) was more than 90%, the 50% degradation concentration (DC50) fell in the range of 1 to 10 nM and the “Selectivity in MV411” value is “C (C (10-100 fold))”.

Regarding `C#Cc1ccc(CNC(=O)[C@@H]2C[C@@H](O)CN2C(=O)[C@@H](NC(=O)[C@H]2CCC3(CC2)C[C@H](N2CCC(c4cnc(N5CCN6c7cc(-c8ccccc8O)nnc7NC[C@H]6C5)nc4)CC2)C3)C(C)(C)C)cc1` (single isomer, unassigned) [I-26], on SMARCA4, the “SMARCA4 MSD MV411 degradation 24 h: average Dmax %” value is reported as “C (C (50-70% degradation))” and the DC50 is more than 100 nM. Besides, at SMARCA2, the “SMARCA2 MSD MV411 degradation 24 h: average Dmax %” value was “B (B (>70-90% degradation))”, the 50% degradation concentration (DC50) was 1 to 10 nM and the “Selectivity in MV411” value is given as “B (B (>100-500 fold))”.
